Our source for the beta values is patent publication US6455242B1, “Color photographic element containing speed improving compound” (Eastman Kodak Company, priority 1998, dated 2002).

The series can be described thus: Permanent solvent physical constant beta. In kind it is physicochemical. The note with it: permanent solvent constant as defined by Kamlet et al. The text has this: The materials of the invention can be added to a mixture containing silver halide before coating or, more suitably, be mixed with the silver halide just prior to or during coating. In either case, additional components like couplers, […], surfactants, hardeners and other materials that are typically present in such solutions may also be present at the same time. The materials of the invention are not water-soluble and cannot be added directly to the solution. They may be added directly if dissolved in an organic water miscible solution such as methanol, acetone or the like or more preferably as a dispersion. A dispersion incorporates the material in a stable, finely divided state in a hydrophobic organic solvent (often referred to as a coupler solvent or permanent solvent) that is stabilized by suitable surfactants and surface active agents usually in combination with a binder or matrix such as gelatin. The dispersion may contain one or more permanent solvents that dissolve the material and maintain it in a liquid state. Some examples of suitable permanent solvents are tricresylphosphate, N,N-diethyllauramide, N,N-dibutyllauramide, p-dodecylphenol, dibutylphthalate, di-n-butyl sebacate, N-n-butylacetanilide, 9-octadecen-1-ol, ortho-methylphenyl benzoate, trioctylamine and 2-ethylhexylphosphate. Permanent solvents can also be described in terms of physical constants such as alpha, beta and pi* as defined by M. J. Kamlet, J-L. M. Abboud, M. H. Abraham and R. W. Taft, J. Org Chem, 48, 2877(1983). The preferred permanent solvents used with the materials of the invention are those with ClogP of 5.0 or greater and beta values of 0.4 or greater or more preferably, beta values of 0.5 or greater. Preferred classes of solvents are carbonamides, phosphates, alcohols and esters. When a solvent is present, it is preferred that the weight ratio of compound to solvent be at least 1 to 0.5, or most preferably, at least 1 to 1. […]

`CCCCCCCC/C=C\CCCCCCCCO` [(Z)-9-octadecen-1-ol]: the beta turned out to be 0.71. For the compound `CCCCCCCCCCCC(=O)N(CCCC)CCCC` [N,N-dibutyllauramide], the beta was found to be 0.93. Consider `Cc1ccccc1OC(=O)c1ccccc1` [ortho-methylphenyl benzoate], for which the beta was determined as 0.43.
